Experimental data as given in US20130123368A1, “METHODS OF REDUCING 15-F2T-ISOP LEVELS IN MAMMALS” (BIOACTIVES, INC., priority 2007, published 2013).

Tests used:
Caco-2 cell monolayers [1] = assay: Permeability of xanthohumol across Caco-2 cell monolayers; assay type: in vitro ADME; details: for Percent Recovery: Caco-2, B-to-A, 2 μM in HBSSg, 37° C.
Experimental: Percent Recovery=100×((Vr×Cr^final)+(Vd×Cd^final))/(Vd×C0)
Where: • dCr/dt is the slope of the cumulative concentration in the receiver compartment versus time in μM s^−1. • Vr is the volume of the receiver compartment in cm^3. • Vd is the volume of the donor compartment in cm^3. • A is the area of the cell-free insert (1.13 cm^2 for 12-well Transwell). • Cr^final is the cumulative receiver concentration in μM at the end of the incubation period. • Cd^final is the concentration of the donor in μM at the end of the incubation period. • C0 is the initial concentration of the dosing solution in μM.
Each determination was performed in duplicate.

Caco-2 cell monolayers [2] = assay: Certification of Caco-2 Transwell plates with reference compounds; assay type: in vitro ADME; details: plate certification TW12, passage 63, age 22 days
Experimental: To test the permeability of xanthohumol across Caco-2 cell monolayers, Caco-2 cell monolayers were grown to confluence on collagen-coated, microporous, polycarbonate membranes in 12-well Costar Transwell® plates. Details of the plates and their certification are shown below in Table 3. The test article was also the aqueous xanthohumol formulation, and the dosing concentration was 2 μM in the assay buffer (HBSSg) as in the previous example. Cell monolayers were dosed on the apical side (A-to-B) or basolateral side (B-to-A) and incubated at 37° C. with 5% CO2 in a humidified incubator. Samples were taken from the donor chamber at 120 minutes, and samples from the receiver chamber were collected at 60 and 120 minutes. Each determination was performed in duplicate. Lucifer yellow permeability was also measured for each monolayer after being subjected to the test article to ensure no damage was inflicted to the cell monolayers during the permeability experiment. All samples were assayed for Xanthohumol by LC/MS/MS using electrospray ionization. The apparent permeability (Papp), and percent recovery were calculated as described above.

Compound | Lucifer yellow Papp, post-experiment integrity control (Caco-2 cell monolayers [1]; all monolayers after exposure to the test article) [×10⁻⁶ cm/s] | Papp (Caco-2 cell monolayers [2]) [×10⁻⁶ cm/s] | Significant Efflux (Caco-2 cell monolayers [1]; Caco-2) | Percent Recovery (Caco-2 cell monolayers [1]; Average) | Percent Recovery (Caco-2 cell monolayers [1]; Rep. 1) | Absorption Potential (Caco-2 cell monolayers [1]; Caco-2, classification by Papp(A-to-B))
Lucifer Yellow [reference compound] | < 0.8 | 0.13 | – | – | – | –
COc1cc(O)c(CC=C(C)C)c(O)c1C(=O)/C=C/c1ccc(O)cc1 [Xanthohumol, 2′,4′,4-trihydroxy-6′-methoxy-3′-prenylchalcone] | – | – | No | 81 | 81 | Medium (1.0 × 10^−6 cm/s > Papp(A-to-B) ≧ 0.5 × 10^−6 cm/s Medium)
